The text below walks through data of PubChem BioAssay AID602443 (National Center for Advancing Translational Sciences (NCATS), 2012).

By solubility is commonly meant the concentration that dissolves in the medium under given conditions.

For this data set, the system named is aqueous kinetic solubility. Put plainly: High Content Assay for Compounds that inhibit the Assembly of the Perinucleolar Compartment: Aqueous Kinetic Solubility. An excerpt:
The perinucleolar compartment (PNC) is a non-membrane-bound nuclear subdomain that is associated with but structurally distinct from the nucleolus. The PNC is a heritable trait, in which the number of PNCs per cell in daughter cells often mimics that of their mother cells. The PNC is heterogeneous in shape, is stable through interphase, disassembles during mitosis, and reassembles in early G1. The PNC is concentrated with newly synthesized RNA polymerase III (pol III) RNAs (MRP RNA, RNAse P H1 RNA, hY RNAs[hY1, 2, 5], Alu RNA, and SRP [7SL] RNA) and RNA binding proteins (nucleolin, PTB, CUG-BP, KSRP, Raver1, Raver2, and Rod).
Extensive in vitro studies have shown that the PNC is unique to tumor cells and preferentially forms in tumor cells derived from solid tissues. Examination of cancer cell lines from various origins and malignant capacities has shown that PNC prevalence correlates with the malignancy of tumors and has the potential to be developed as a pan-cancer prognostic marker.
This bioassay provides profiling data on aqueous kinetic solubility (PBS @ pH 7.4) of some of the lead compounds developed for this project.
NIH Chemical Genomics Center [NCGC]
NIH Molecular Libraries Probe Centers Network [MLPCN] […]
5. Concentration of the supernatant was determined by LC-UV or LC-MS/MS

Molecules are shown by their SMILES. ≈ marks a conversion by molar mass, not a printed value.

For `N=c1c2c(-c3ccccc3)c(-c3ccccc3)n(Cc3ccccc3)c2ncn1C1CCC(O)CC1` (stereo unspecified), the solubility is 150 µM (≈ 71.2 µg/mL).
